This is an account of results in paper PMC3763812 (Chemical research in toxicology, 2013).

For data set [1] the following is noted: with exogenous activation; cited from earlier work.
In data set [2] the test system is DNA. The note with it: in vivo and in vitro; cited from earlier work.
The test system of data set [3] is ds-DNA with cyt P4501A1, 1B1 and 1A2 supersomes. The note with it: electro-optical toxicity screening arrays.
In data set [4] the test system is DNA. The settings on record: activated by light without metabolic activation; cited from earlier work.
The test system of data set [5] is ds-DNA in DNA/RuPVP/1B1 films (cyt P450 1B1 supersomes). The data set can be described thus: ECL genotoxicity array, DNA/RuPVP/1B1 films. The settings on record: 25 μM B[a]P or 50 μM B[ghi]P with NADPH. Type of data set: biochemical, human.
In the next data set the test system is mouse skin. The note with it: cited from earlier work.
The subject of data set [6] is DNA in PDDA/supersomes/PDDA/DNA biocolloids (1A1 and 1B1 supersomes). Type of data set: biochemical, human. The settings on record: 20-mins reaction of B[ghi]P with biocolloid enzyme/DNA reactors.
The test system of data set [7] is ds-DNA in DNA/RuPVP/1A2 films (cyt P450 1A2 supersomes). The data set can be described thus: ECL genotoxicity array, DNA/RuPVP/1A2 films. Type of data set: biochemical, human. The note with it: 25 μM B[a]P or 50 μM B[ghi]P with NADPH.

Entries after “also recorded” stand apart in the source; their conditions may differ.

Turning to `c1cc2ccc3ccc4ccc5cccc6c(c1)c2c3c4c56` [B[ghi]P, benzo[ghi]perylene], the “Mutagenicity in the Ames test” value in data set [1] is listed as “displays mutagenicity”. For the same compound, in the data set with DNA [2], the “Binding of active metabolites to DNA” value was “active metabolites can bind to DNA”. Further, the “Lower rate of DNA damage by B[ghi]P metabolites than benzo[a]pyrene” value in data set [3] worked out at 3 fold. Also, the “DNA damage in Comet assays” value in the data set with DNA [4] is reported as “yielded DNA damage”. For the same compound, the “Normalized ECL turnover rate (R)” value in data set [5] is 34.3 μg^−1•protein•min^−1•mM; in data set [7], 23.3 μg^−1•protein•min^−1•mM. For the same compound, the Tumor initiation result in the data set with mouse skin is “not found to initiate tumors; also recorded: negative”. Also, the “Detection of DNA adducts of B[ghi]P 3,4-oxide (mass transitions of Table 3)” value in data set [6] is reported as “no peaks were found”.
